Source: patent publication US20220264883A1, “IMIDAZOTHIAZOLE COMPOUNDS AND METHODS FOR TREATING PLANT NEMATODE INFECTIONS” (The Governing Council of the University of Toronto, priority 2019, published 2022)

Assays:
P. pacificus = experiment: Pristionchus pacificus dose-response experiments; assay type: in vivo; conditions: larvae, animals reaching L3 stage or older counted
Description: Dose-response assays were carried out exactly as those described above for the C. elegans L1 dose-response experiments. However, the compounds of the application-induced phenotypes in P. pacificus, even at the highest concentrations, were a combination of lethality and larval arrest. Therefore, for the Pristionchus dose-response assays, the number of animals that reached the L3 stage or older was quantified, as opposed to the number of viable worms. The arrested animals appeared very sick, and would likely die before reaching reproductive adulthood. Therefore, this arrested phenotype was considered to be practically analogous to lethality. The “relative viability” values were calculated the same way as for the C. elegans dose-response experiments, and were averaged across at least three biological replicates. LC50 values were calculated in the same manner as for the C. elegans dose-response assays.

[1] = Saccharomyces cerevisiae (budding yeast) dose-response experiments; assay type: cell-based; conditions: Saccharomyces cerevisiae, yeast strain RY0568 culture; non-target system; growth over 18 hours; read-out: S. cerevisiae LC50
Description: A saturated culture of the yeast strain RY0568 was diluted to an OD600 of 0.015 with fresh YPD media (see ref. 62). 100 μL of this dilute yeast suspension was added to each well of a 96-well plate. The yeast were grown for 4 hours at 30° C. with shaking at 140 rpm. Using a multichannel pipette, 1 μL of chemical solution was added to each well to achieve the desired final concentrations. The final DMSO concentration was 1% (v/v). The microwell plate was then loaded into a TECAN plate reader set at 30° C. The OD600 of each well was measured over an 18-hour period, and the plate was shaken intermittently throughout the run. The areas under the resultant growth curves were calculated using R scripts adapted from those found in the MESS package. The area under the curve at each concentration of a dose-response assay was divided by the area under the curve for the corresponding DMSO control, resulting in a “relative fitness” value for each concentration tested. Three biological replicates were performed for each dose-response experiment, and the relative fitness values were averaged across the three replicates.

[2] = HEK cell culture and dose-response experiments; assay type: cell-based, Human; conditions: human, HEK293 cells, non-target system, CellTiter-Blue, read-out: HEK Cells LC50
Description: HEK293 cells were seeded into 96-well plates, at 5000 cells per well, in 100 μL total volumes of DMEM/10% FBS/1% PS media and grown overnight at 37° C. in the presence of 5% CO2. Compounds (0.5 μL volumes from appropriate source plates) were then added to cells, and growth was continued for an additional 48 hours. Following growth, 10 μL of CellTiter-Blue Viability reagent (Promega) was added to each well, and plates were incubated for an additional 4 hours at 37° C. in the presence of 5% CO2. Fluorescence measurements (560 nm excitation/590 nm emission) were then performed using a CLARIOstar Plate Reader (BMG Labtech) to quantify reagent reduction and estimate cell viability.

C. elegans = C. elegans viability at a single concentration (Table 3); assay type: in vivo; conditions: Caenorhabditis elegans; 100 μM
Description: Forty microliters of an HB101 bacterial suspension in liquid NGM (see above) was added to each well of a 96-well flat-bottom culture plate, after which approximately 25 synchronized L1 worms, in 10 μl of M9 buffer (see ref. 59 for the recipe), were added to each well. The synchronized L1 worms were obtained from an embryo preparation performed the previous day (see ref. 59 for the protocol). For the L1 assays, 0.5 μl of chemical solution (or DMSO alone) was immediately added to the wells using a multichannel pipette, the final DMSO concentration is 1% (v/v). The worms were incubated for 3 days at 20° C. and the number of viable animals was counted. […] Although the counts were performed after 3 days of incubation in the chemical, it was noted that the L1s were dead within 24 hours of the addition of the chemicals. For the L2/L3 assays, the worms were incubated in the absence of chemical for 1 day at 20° C. until they reached the L2/L3 stage, at which point chemical was added as described above. The worms were then allowed to incubate for 2 days at 20° C. and the number of viable animals was counted as described for the L1 assay. For the L4 assays, the worms were incubated for 2 days at 20° C. before the addition of chemicals. The L4-stage worms were then incubated in chemical for an additional day before quantifying the number of viable animals. The adult assays were performed the same way as the L4 assays, however HT115 E. coli carrying the empty dsRNA expressing vector L4440 was used in place of HB101 and the worms were cultured at 25° C. as opposed to 20° C. for the entirety of the experiment. The HT115 suspension was made by concentrating a bacterial culture, with an OD600 of ˜ 0.8, five-fold with liquid NGM containing 1 mM IPTG and 100 μg/ml carbenicillin. The HT115 cells were induced with 1 mM IPTG for one hour before concentrating with NGM.
(§1) The ability of exemplary compounds of the application to kill C. elegans at 100 μM (except for compound If which was tested at 50 μM) and to affect the mobility of M. chitwoodi at 45 μM was tested as described above for M. incognita infective juveniles. Percent mobility was measured after 2 days of chronic exposure to test compounds (Table 3).

M. chitwoodi = experiment: Root-knot nematode M. chitwoodi mobility (Table 3); assay type: in vivo, Meloidogyne chitwoodi; conditions: 45 μM, 2 days of chronic exposure
Description: M. incognita (Kofoid & White) Chitwood Race 1 (originally isolated in Maryland) was used for all experiments, and was maintained on pepper (Capsicum annuum L.) cv. PA-136 in a greenhouse as previously described^64. Infective J2 juveniles were collected as described in ref.65. The microwell dose-response experiments were carried out similarly to previously described protocols^64, 66. In brief, 100 J2s, in 10 μL of deionized water, were added to the wells of 96-well polystyrene plates, after which 190 μL of deionized water containing dissolved chemical, or DMSO alone, was added to each well. The chemicals were tested at 45 μM, and the final concentration of DMSO in each well was 0.5% (v/v). The wells were covered with a plastic adhesive strip, and the lids of the plates were sealed with parafilm. The plates were incubated at 25° C. The mobile fraction of worms was quantified by counting the number of mobile and immobile worms after 2 days of incubation, and then dividing the number of mobile worms by the total number of worms in the well. Three technical replicates were performed for each treatment, and an average value for the mobile fraction of worms was calculated across the three replicates. The percent effectiveness at inhibiting nematode movement was calculated by dividing the average value for the chemical treatment by the average value for the DMSO control, then subtracting this value from 1, and then multiplying by 100.
M. chitwoodi race 1 (the strain commonly found in the pacific northwest of the United States) was used for all experiments, and was maintained on tomato plants (Solanum lycopersicum ‘Rutgers’) as previously described^73. The M. chitwoodi in vitro assays were performed identically to the M. incognita in vitro assays (see above).
as §1

Compound | LC50 (P. pacificus) | CC50 at 18 h [1] | CC50 at 48 h [2] | viability at 100 µM (C. elegans) | RKN mobility (M. chitwoodi)
Cc1csc2nc(-c3ccccc3)cn12 [Compound Ie] | 45.5 µM | > 100 µM | > 100 µM | 100% | 50.8%
Clc1ccc(-c2cn3ccsc3n2)cc1 [Ia] | 6.1 µM | > 100 µM | > 100 µM | 0% | 0%
Fc1ccc(-c2cn3ccsc3n2)cc1 [Ib] | 14.7 µM | > 100 µM | > 100 µM | 0% | 43.2%
